Several values for one entry are separate records, joined by “and”; a condition that tells them apart may be missing. Identical values can stand only once.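 Where inhibition never reached the appropriate level, the endpoint shown equals the highest concentration tested. Otherwise, values were interpolated linearly from a five-concentration, 48-hour dose response in 96-well plates. At the GI50, growth is halved. TGI: total growth inhibition.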 Bounds are passed on as bounds.

The subject of the first test is MDA-MB-231 breast. In words: inhibition of tumour cell growth, NCI panel, 48 h.
With `CC(=O)Oc1ccccc1C(=O)Nc1ncc([N+](=O)[O-])s1`, the GI50 was 1.95 µM.

Regarding `O=C1NC(=O)C(c2cccc([N+](=O)[O-])c2)=C1Nc1cc(Cl)c(O)c(Cl)c1`, the GI50 is above 25 µM and the TGI is above 25 µM.

For `CCN(Cc1ccccc1C)c1ccc(CO)c(Cl)c1`, the GI50 was 13.7 µM and the TGI was 32 µM.

`O=C(O)CC(NC(=O)CP(=O)(O)O)C(=O)O` (centres undefined) showed a TGI above 10000 µM.

Consider `NC(=O)OCCn1cc(-c2nc(-c3c[nH]c4ncccc34)cs2)c2ccccc21`, for which the GI50 was 1.1 µM and the TGI is 4.38 µM.

Regarding `Cn1cc(C2=C(c3cccc(Br)c3)C(=O)NC2=O)c2ccccc21`, the GI50 is 18.7 µM and the TGI was above 25 µM.

In the case of `O=CN1CCN(CC(O)CN2CCCCC2)CC1` (centres undefined), the TGI was above 100 µM.

`Cc1[nH]c(/C=C2\C(=O)Nc3ccccc32)c(C)c1CCC(=O)O`: the GI50 is 20.7 µM; the TGI was > 73.7 µM and 75.9 µM.

Molecule `c1ccc2c(c1)c1c(c3ccccc32)CN2CCCC2C1` (centres undefined) showed a TGI of 32.3 µM.

Take `NCCSc1nc(-c2ccccc2)c(-c2ccccc2)o1`: the TGI is above 100 µM.

As to `O=C(c1ccc(/C=C/c2n[nH]c3ccccc23)cc1)N1CCNCC1`, the GI50 was 6.04 µM and 3.62 µM; the TGI is > 10 µM and 18 µM.

For the molecule `O=C(Nc1ccc(-n2ccc3c(NC(=O)c4ccccc4)nccc32)cc1)Nc1ccc(Cl)c(Cl)c1`, the GI50 is 1.23 µM and the TGI is 2.82 µM.

As for `Cc1cc(C)c(NC(=O)c2sc3nc4c(cc3c2N)CN(Cc2ccccc2)CC4)c(C)c1`, the GI50 was 5.75 µM and the TGI is 58.9 µM.

For `N#CC1=C(N)Oc2cc(O)ccc2C1c1cccc2ccccc12` (centres undefined), the GI50 was 11.8 µM and the TGI turned out to be 30 µM.

In the case of `C=C1C(=O)O[C@H]2[C@H]1CC/C(COC(=O)/C=C\C(=O)NCc1ccc(Cn3c(=O)sn(CCCC)c3=O)cc1)=C\CC[C@@]1(C)O[C@@H]21`, the GI50 was 0.992 µM and the TGI stood at 2.34 µM.

Another test deals with UACC-62 melanoma. In words: inhibition of tumour cell growth, NCI panel, 48 h.
Turning to `CC(=O)Oc1ccccc1C(=O)Nc1ncc([N+](=O)[O-])s1`, the GI50 is 1.23 µM; the TGI is 6.71 µM and > 47.3 µM.

`O=C1NC(=O)C(c2cccc([N+](=O)[O-])c2)=C1Nc1cc(Cl)c(O)c(Cl)c1`: the GI50 was above 20.8 µM and the TGI was above 25 µM.

For the molecule `CCN(Cc1ccccc1C)c1ccc(CO)c(Cl)c1`, the GI50 was 0.423 µM and the TGI came out at 6.27 µM.

As to `O=C(O)CC(NC(=O)CP(=O)(O)O)C(=O)O` (centres undefined), the TGI came to 6640 µM.

In the case of `NC(=O)OCCn1cc(-c2nc(-c3c[nH]c4ncccc34)cs2)c2ccccc21`, the GI50 was 1.57 µM and the TGI stood at 5.41 µM.

As for `Cn1cc(C2=C(c3cccc(Br)c3)C(=O)NC2=O)c2ccccc21`, the GI50 is 11.3 µM and the TGI was above 25 µM.

`O=CN1CCN(CC(O)CN2CCCCC2)CC1` (centres undefined) yielded a TGI above 100 µM.

Regarding `Cc1[nH]c(/C=C2\C(=O)Nc3ccccc32)c(C)c1CCC(=O)O`, the GI50 was 17.7 µM; the TGI is 58.1 µM and 95.6 µM.

As to `c1ccc2c(c1)c1c(c3ccccc32)CN2CCCC2C1` (centres undefined), the TGI stood at 12.8 µM.

For `NCCSc1nc(-c2ccccc2)c(-c2ccccc2)o1`, the TGI was above 100 µM.

For the molecule `O=C(c1ccc(/C=C/c2n[nH]c3ccccc23)cc1)N1CCNCC1`, the GI50 is 1.72 µM and 11.3 µM; the TGI was 3.83 µM and 24.8 µM.

As to `O=C(Nc1ccc(-n2ccc3c(NC(=O)c4ccccc4)nccc32)cc1)Nc1ccc(Cl)c(Cl)c1`, the GI50 is 1.23 µM and the TGI was found to be 2.83 µM.

In the case of `Cc1cc(C)c(NC(=O)c2sc3nc4c(cc3c2N)CN(Cc2ccccc2)CC4)c(C)c1`, the GI50 was 3.9 µM and the TGI amounted to 42.4 µM.

Regarding `N#CC1=C(N)Oc2cc(O)ccc2C1c1cccc2ccccc12` (centres undefined), the GI50 was 12.6 µM and the TGI was determined as 27.3 µM.

Take `C=C1C(=O)O[C@H]2[C@H]1CC/C(COC(=O)/C=C\C(=O)NCc1ccc(Cn3c(=O)sn(CCCC)c3=O)cc1)=C\CC[C@@]1(C)O[C@@H]21`: the GI50 was 1.2 µM and the TGI is 2.53 µM.

The test system of a further test is SN12C renal. In words: inhibition of tumour cell growth, NCI panel, 48 h.
For the molecule `CC(=O)Oc1ccccc1C(=O)Nc1ncc([N+](=O)[O-])s1`, the GI50 was 1.87 µM; the TGI is 21.2 µM and 90.9 µM.

As to `O=C1NC(=O)C(c2cccc([N+](=O)[O-])c2)=C1Nc1cc(Cl)c(O)c(Cl)c1`, the GI50 is above 25 µM and the TGI is above 25 µM.

Turning to `CCN(Cc1ccccc1C)c1ccc(CO)c(Cl)c1`, the GI50 was 12.5 µM and the TGI was found to be 25.9 µM.

Turning to `O=C(O)CC(NC(=O)CP(=O)(O)O)C(=O)O` (centres undefined), the TGI was above 9020 µM.

`NC(=O)OCCn1cc(-c2nc(-c3c[nH]c4ncccc34)cs2)c2ccccc21`: the GI50 was 2.46 µM and the TGI was 32.4 µM.

On to `Cn1cc(C2=C(c3cccc(Br)c3)C(=O)NC2=O)c2ccccc21`, for which the GI50 was 13.2 µM and the TGI was above 25 µM.

Molecule `O=CN1CCN(CC(O)CN2CCCCC2)CC1` (centres undefined) showed a TGI above 100 µM.

As to `Cc1[nH]c(/C=C2\C(=O)Nc3ccccc32)c(C)c1CCC(=O)O`, the GI50 is 24.7 µM and the TGI was above 100 µM.

The molecule `c1ccc2c(c1)c1c(c3ccccc32)CN2CCCC2C1` (centres undefined) displayed a TGI of 14.9 µM.

`NCCSc1nc(-c2ccccc2)c(-c2ccccc2)o1` had a TGI above 100 µM.

As for `O=C(c1ccc(/C=C/c2n[nH]c3ccccc23)cc1)N1CCNCC1`, the GI50 is > 10 µM and 2.43 µM; the TGI is > 10 µM and 19.4 µM.

For `O=C(Nc1ccc(-n2ccc3c(NC(=O)c4ccccc4)nccc32)cc1)Nc1ccc(Cl)c(Cl)c1`, the GI50 was 2.01 µM and the TGI was 9.08 µM.

With `Cc1cc(C)c(NC(=O)c2sc3nc4c(cc3c2N)CN(Cc2ccccc2)CC4)c(C)c1`, the GI50 was 5.6 µM and the TGI was above 100 µM.

In the case of `N#CC1=C(N)Oc2cc(O)ccc2C1c1cccc2ccccc12` (centres undefined), the GI50 was 20.4 µM and the TGI turned out to be 58.3 µM.

In the case of `C=C1C(=O)O[C@H]2[C@H]1CC/C(COC(=O)/C=C\C(=O)NCc1ccc(Cn3c(=O)sn(CCCC)c3=O)cc1)=C\CC[C@@]1(C)O[C@@H]21`, the GI50 was 0.865 µM and the TGI came out at 2.25 µM.

A further test has as its system UO-31 renal. In words: inhibition of tumour cell growth, NCI panel, 48 h.
`CC(=O)Oc1ccccc1C(=O)Nc1ncc([N+](=O)[O-])s1`: the GI50 is 2.16 µM.

As for `O=C1NC(=O)C(c2cccc([N+](=O)[O-])c2)=C1Nc1cc(Cl)c(O)c(Cl)c1`, the GI50 was above 17.6 µM and the TGI was above 25 µM.

For `CCN(Cc1ccccc1C)c1ccc(CO)c(Cl)c1`, the GI50 was 12.9 µM and the TGI was 32.9 µM.

As for `O=C(O)CC(NC(=O)CP(=O)(O)O)C(=O)O` (centres undefined), the TGI is above 10000 µM.

Turning to `NC(=O)OCCn1cc(-c2nc(-c3c[nH]c4ncccc34)cs2)c2ccccc21`, the GI50 is 0.621 µM and the TGI amounted to 4.65 µM.

Regarding `Cn1cc(C2=C(c3cccc(Br)c3)C(=O)NC2=O)c2ccccc21`, the GI50 is 6.42 µM and the TGI was above 25 µM.

As for `O=CN1CCN(CC(O)CN2CCCCC2)CC1` (centres undefined), the TGI is above 100 µM.

With `Cc1[nH]c(/C=C2\C(=O)Nc3ccccc32)c(C)c1CCC(=O)O`, the GI50 is 11.6 µM; the TGI is 43.6 µM and > 100 µM.

`c1ccc2c(c1)c1c(c3ccccc32)CN2CCCC2C1` (centres undefined) showed a TGI of 11.8 µM.

Molecule `NCCSc1nc(-c2ccccc2)c(-c2ccccc2)o1` gave a TGI above 100 µM.

For `O=C(c1ccc(/C=C/c2n[nH]c3ccccc23)cc1)N1CCNCC1`, the GI50 is 2.94 µM and 2.95 µM; the TGI was > 10 µM and 15.1 µM.

With `O=C(Nc1ccc(-n2ccc3c(NC(=O)c4ccccc4)nccc32)cc1)Nc1ccc(Cl)c(Cl)c1`, the GI50 was 1.6 µM and the TGI worked out at 4.1 µM.

For `Cc1cc(C)c(NC(=O)c2sc3nc4c(cc3c2N)CN(Cc2ccccc2)CC4)c(C)c1`, the GI50 was 4.78 µM and the TGI is 93.9 µM.

As to `N#CC1=C(N)Oc2cc(O)ccc2C1c1cccc2ccccc12` (centres undefined), the GI50 is 12.3 µM and the TGI turned out to be 25.8 µM.

For `C=C1C(=O)O[C@H]2[C@H]1CC/C(COC(=O)/C=C\C(=O)NCc1ccc(Cn3c(=O)sn(CCCC)c3=O)cc1)=C\CC[C@@]1(C)O[C@@H]21`, the GI50 is 0.387 µM and the TGI is 1.61 µM.

In the next test the test system is HS 578T breast. In words: inhibition of tumour cell growth, NCI panel, 48 h.
Consider `CC(=O)Oc1ccccc1C(=O)Nc1ncc([N+](=O)[O-])s1`, for which the GI50 was 1.94 µM; the TGI is 9.97 µM and > 37.5 µM.

For the molecule `O=C1NC(=O)C(c2cccc([N+](=O)[O-])c2)=C1Nc1cc(Cl)c(O)c(Cl)c1`, the GI50 was 7.03 µM and the TGI is above 25 µM.

For `CCN(Cc1ccccc1C)c1ccc(CO)c(Cl)c1`, the GI50 was 16 µM and the TGI was found to be 42.3 µM.

Regarding `O=C(O)CC(NC(=O)CP(=O)(O)O)C(=O)O` (centres undefined), the GI50 was 74.5 µM and the TGI was above 10000 µM.

Consider `NC(=O)OCCn1cc(-c2nc(-c3c[nH]c4ncccc34)cs2)c2ccccc21`, for which the GI50 is 1.07 µM and the TGI is 4.25 µM.

On to `Cn1cc(C2=C(c3cccc(Br)c3)C(=O)NC2=O)c2ccccc21`, for which the GI50 is 3.92 µM and the TGI is above 25 µM.

Molecule `O=CN1CCN(CC(O)CN2CCCCC2)CC1` (centres undefined) gave a TGI above 100 µM.

In the case of `Cc1[nH]c(/C=C2\C(=O)Nc3ccccc32)c(C)c1CCC(=O)O`, the GI50 is 9.45 µM; the TGI is 51.9 µM and > 100 µM.

On to `c1ccc2c(c1)c1c(c3ccccc32)CN2CCCC2C1` (centres undefined), for which the TGI is 13.8 µM.

The molecule `NCCSc1nc(-c2ccccc2)c(-c2ccccc2)o1` displayed a TGI above 100 µM.

As to `O=C(c1ccc(/C=C/c2n[nH]c3ccccc23)cc1)N1CCNCC1`, the GI50 is 1.93 µM and 4.22 µM; the TGI is 7.36 µM and 31.7 µM.

`O=C(Nc1ccc(-n2ccc3c(NC(=O)c4ccccc4)nccc32)cc1)Nc1ccc(Cl)c(Cl)c1`: the GI50 is 0.791 µM and the TGI amounted to 3.47 µM.

Take `Cc1cc(C)c(NC(=O)c2sc3nc4c(cc3c2N)CN(Cc2ccccc2)CC4)c(C)c1`: the GI50 was 2.66 µM and the TGI came to 65.9 µM.

With `N#CC1=C(N)Oc2cc(O)ccc2C1c1cccc2ccccc12` (centres undefined), the GI50 is 16.6 µM and the TGI is 73 µM.

Regarding `C=C1C(=O)O[C@H]2[C@H]1CC/C(COC(=O)/C=C\C(=O)NCc1ccc(Cn3c(=O)sn(CCCC)c3=O)cc1)=C\CC[C@@]1(C)O[C@@H]21`, the GI50 is 1.3 µM and the TGI stood at 3.32 µM.

These data come from PubChem BioAssay (NCI).
